Data: patent publication US11547697B2, “Heterocyclic compounds and uses thereof” (MILLENNIUM PHARMACEUTICALS, INC., priority 2009, dated 2023)

Assays:
[1] = molecular target: p110γ (Homo sapiens (Human), UniProt P48736); assay: PI 3-Kinase (human) HTRF assay, p110γ; format: biochemical; settings: read-out: PI3K γ IC50
[2] = molecular target: p110δ/p85α (Homo sapiens (Human), UniProt O00329); assay: PI 3-Kinase (human) HTRF assay, p110δ/p85α; format: biochemical; settings: read-out: PI3K δ IC50
[3] = molecular target: p110α/p85α (Homo sapiens (Human), UniProt P42336); assay: PI 3-Kinase (human) HTRF assay, p110α/p85α; format: biochemical; settings: read-out: PI3K α IC50
p110α/p85α, sequence (P42336 whole entry): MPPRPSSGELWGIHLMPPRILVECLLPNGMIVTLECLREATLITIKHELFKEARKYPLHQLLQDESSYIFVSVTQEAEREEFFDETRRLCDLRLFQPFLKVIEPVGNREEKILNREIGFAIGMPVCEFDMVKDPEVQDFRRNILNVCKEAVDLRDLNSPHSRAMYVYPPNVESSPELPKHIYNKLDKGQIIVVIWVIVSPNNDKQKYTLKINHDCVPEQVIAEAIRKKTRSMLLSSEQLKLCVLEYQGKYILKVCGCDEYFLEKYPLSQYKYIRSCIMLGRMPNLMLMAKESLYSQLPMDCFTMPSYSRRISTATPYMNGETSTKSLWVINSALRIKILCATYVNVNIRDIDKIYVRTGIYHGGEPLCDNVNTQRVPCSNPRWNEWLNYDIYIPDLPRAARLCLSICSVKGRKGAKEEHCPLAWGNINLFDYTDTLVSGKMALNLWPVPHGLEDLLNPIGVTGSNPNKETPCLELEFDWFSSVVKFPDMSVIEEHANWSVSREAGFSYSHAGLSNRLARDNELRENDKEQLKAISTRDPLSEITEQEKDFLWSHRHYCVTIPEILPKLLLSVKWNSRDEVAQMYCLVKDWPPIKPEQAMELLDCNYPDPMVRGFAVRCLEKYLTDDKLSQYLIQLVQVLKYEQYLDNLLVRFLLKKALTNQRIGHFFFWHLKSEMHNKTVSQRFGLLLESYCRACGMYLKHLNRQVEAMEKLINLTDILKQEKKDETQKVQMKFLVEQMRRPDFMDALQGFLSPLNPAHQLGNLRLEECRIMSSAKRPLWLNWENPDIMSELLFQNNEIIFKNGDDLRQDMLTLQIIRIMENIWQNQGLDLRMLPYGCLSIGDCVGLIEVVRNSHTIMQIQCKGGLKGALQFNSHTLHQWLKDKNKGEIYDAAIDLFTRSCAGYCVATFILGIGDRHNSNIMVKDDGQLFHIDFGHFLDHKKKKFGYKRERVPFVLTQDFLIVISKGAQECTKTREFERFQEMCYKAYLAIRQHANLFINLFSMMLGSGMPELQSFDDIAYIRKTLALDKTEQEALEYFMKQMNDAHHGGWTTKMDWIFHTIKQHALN
p110α/p85α, sequence (P27986 whole entry partner): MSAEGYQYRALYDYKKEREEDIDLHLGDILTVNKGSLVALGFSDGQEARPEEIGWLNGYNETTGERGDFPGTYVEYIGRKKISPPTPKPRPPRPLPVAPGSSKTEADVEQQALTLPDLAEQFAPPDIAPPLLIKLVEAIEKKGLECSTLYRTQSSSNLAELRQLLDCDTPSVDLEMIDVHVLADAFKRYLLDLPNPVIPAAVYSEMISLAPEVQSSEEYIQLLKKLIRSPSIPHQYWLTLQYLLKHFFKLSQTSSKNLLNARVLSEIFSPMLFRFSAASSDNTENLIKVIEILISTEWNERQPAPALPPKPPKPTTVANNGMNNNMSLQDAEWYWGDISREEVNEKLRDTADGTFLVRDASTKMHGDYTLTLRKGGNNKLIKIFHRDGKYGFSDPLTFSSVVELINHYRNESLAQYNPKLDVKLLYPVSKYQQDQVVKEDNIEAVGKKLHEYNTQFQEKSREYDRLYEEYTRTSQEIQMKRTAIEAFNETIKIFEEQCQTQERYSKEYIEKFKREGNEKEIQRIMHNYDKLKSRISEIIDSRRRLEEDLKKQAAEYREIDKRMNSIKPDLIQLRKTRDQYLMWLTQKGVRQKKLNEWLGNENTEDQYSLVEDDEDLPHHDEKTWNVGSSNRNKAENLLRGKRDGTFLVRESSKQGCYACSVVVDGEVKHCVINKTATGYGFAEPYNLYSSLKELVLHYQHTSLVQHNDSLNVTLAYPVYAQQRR

[4] = molecular target: recombinant mTOR (Homo sapiens (Human), UniProt P42345); assay: mTOR inhibition assay (radiometric or LanthaScreen TR-FRET); format: biochemical; settings: read-out: MTORC IC50
recombinant mTOR, sequence (P42345 1360-2549): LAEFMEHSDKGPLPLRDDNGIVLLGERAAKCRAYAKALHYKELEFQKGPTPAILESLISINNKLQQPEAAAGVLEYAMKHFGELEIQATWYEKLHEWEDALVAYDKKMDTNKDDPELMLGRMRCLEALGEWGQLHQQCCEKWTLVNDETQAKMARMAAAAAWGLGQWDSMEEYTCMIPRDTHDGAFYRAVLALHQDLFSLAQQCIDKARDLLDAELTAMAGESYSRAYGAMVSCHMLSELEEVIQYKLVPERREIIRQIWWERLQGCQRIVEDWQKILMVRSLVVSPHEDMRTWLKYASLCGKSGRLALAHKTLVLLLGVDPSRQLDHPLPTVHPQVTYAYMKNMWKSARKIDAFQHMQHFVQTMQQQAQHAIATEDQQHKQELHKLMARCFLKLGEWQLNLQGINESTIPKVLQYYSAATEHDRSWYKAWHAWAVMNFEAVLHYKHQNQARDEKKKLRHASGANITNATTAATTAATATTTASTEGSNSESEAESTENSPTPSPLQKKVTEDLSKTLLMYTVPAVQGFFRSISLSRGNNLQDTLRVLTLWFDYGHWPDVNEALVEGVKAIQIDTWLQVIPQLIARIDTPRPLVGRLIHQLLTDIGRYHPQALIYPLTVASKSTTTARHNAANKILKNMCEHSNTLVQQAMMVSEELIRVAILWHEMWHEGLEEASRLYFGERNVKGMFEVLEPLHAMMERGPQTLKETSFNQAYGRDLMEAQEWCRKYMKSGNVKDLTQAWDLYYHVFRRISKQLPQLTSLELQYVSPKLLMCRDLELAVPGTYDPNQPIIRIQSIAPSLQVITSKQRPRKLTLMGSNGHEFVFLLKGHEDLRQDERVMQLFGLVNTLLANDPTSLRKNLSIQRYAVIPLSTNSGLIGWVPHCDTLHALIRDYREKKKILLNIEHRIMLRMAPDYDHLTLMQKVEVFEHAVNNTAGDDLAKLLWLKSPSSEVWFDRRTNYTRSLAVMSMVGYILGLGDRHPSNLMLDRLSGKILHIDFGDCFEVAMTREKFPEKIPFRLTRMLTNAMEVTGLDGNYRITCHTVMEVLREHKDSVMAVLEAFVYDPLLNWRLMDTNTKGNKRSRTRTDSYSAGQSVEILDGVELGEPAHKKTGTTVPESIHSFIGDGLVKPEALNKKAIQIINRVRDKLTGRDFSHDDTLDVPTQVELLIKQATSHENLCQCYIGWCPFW
Protocol: The compounds described herein can be tested against recombinant mTOR (Invitrogen) in an assay containing 50 mM HEPES, pH 7.5, 1 mM EGTA, 10 mM MgCl2, 2.5 mM, 0.01% Tween, 10 pM ATP (2.5 μCi of μ-32P-ATP), and 3 μg/mL BSA. R^at recombinant PHAS-1/4EBP1 (Calbiochem; 2 mg/mL) is used as a substrate. Reactions are terminated by spotting onto nitrocellulose, which is washed with 1M NaCl/1% phosphoric acid (approximately 6 times, 5-10 minutes each). Sheets are dried and the transferred radioactivity quantitated by phosphorimaging.
For instance, one can use Invitrogen's LanthaScreen™ Kinase assay to test the inhibitors of mTOR disclosed herein. This assay is a time resolved FRET platform that measures the phosphorylation of GFP labeled 4EBP1 by mTOR kinase. The kinase reaction is performed in a white 384 well microtitre plate. The total reaction volume is 20 ul per well and the reaction buffer composition is 50 mM HEPES pH7.5, 0.01% Polysorbate 20, 1 mM EGTA, 10 mM MnCl2, and 2 mM DTT. In the first step, each well receives 2 ul of test compound in 20% dimethylsulphoxide resulting in a 2% DMSO final concentration. Next, 8 ul of mTOR diluted in reaction buffer is added per well for a 60 ng/ml final concentration. To start the reaction, 10 ul of an ATP/GFP-4EBP1 mixture (diluted in reaction buffer) is added per well for a final concentration of 10 μM ATP and 0.5 μM GFP-4EBP1. The plate is sealed and incubated for 1 hour at room temperature. […] The plate is sealed, incubated for 1 hour at room temperature, and then read on a plate reader set up for LanthaScreen™ TR-FRET. Data is analyzed and IC50s are generated using GraphPad Prism 5.

[5] = molecular target: p110β/p85α (Homo sapiens (Human), UniProt P42338); assay: PI 3-Kinase (human) HTRF assay, p110β/p85α; format: biochemical; settings: read-out: PI3K β IC50
[6] = tested on: tumor cells with a PI3Kα mutation (e.g., MDA-MB-361 and T47D); assay: Proliferation of tumor cells with PI3Kα mutation; format: cell-based; settings: Homo sapiens; T47D cells; read-out: T47D proliferation

p110δ/p85α, sequence (O00329 whole entry): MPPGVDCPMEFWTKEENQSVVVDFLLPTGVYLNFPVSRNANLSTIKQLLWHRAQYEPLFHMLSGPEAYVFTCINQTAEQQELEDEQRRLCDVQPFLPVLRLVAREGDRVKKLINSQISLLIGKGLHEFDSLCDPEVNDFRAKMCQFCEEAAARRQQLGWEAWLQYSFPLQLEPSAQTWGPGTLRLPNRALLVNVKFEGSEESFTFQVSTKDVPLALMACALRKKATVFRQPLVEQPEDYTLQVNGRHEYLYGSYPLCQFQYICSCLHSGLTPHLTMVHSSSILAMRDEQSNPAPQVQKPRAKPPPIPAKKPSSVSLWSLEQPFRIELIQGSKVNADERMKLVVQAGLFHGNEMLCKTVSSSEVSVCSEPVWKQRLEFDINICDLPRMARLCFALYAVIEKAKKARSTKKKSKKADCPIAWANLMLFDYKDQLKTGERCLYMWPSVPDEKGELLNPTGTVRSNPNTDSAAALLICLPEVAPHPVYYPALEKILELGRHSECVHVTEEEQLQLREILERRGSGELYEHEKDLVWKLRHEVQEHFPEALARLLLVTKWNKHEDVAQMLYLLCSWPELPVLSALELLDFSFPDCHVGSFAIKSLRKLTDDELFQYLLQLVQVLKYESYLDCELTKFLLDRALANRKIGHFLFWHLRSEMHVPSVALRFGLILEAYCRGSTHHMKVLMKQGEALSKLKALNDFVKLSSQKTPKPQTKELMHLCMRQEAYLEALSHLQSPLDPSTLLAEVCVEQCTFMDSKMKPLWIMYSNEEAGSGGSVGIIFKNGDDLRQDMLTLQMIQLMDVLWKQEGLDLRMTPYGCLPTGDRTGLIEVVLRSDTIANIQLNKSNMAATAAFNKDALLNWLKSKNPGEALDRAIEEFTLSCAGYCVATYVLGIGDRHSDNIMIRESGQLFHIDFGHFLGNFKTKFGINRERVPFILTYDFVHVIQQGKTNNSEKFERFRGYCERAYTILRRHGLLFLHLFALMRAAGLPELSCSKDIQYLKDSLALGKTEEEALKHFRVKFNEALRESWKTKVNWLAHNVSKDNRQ
p110δ/p85α, sequence (P27986 whole entry partner): as the sequence (P27986 whole entry partner) above

`Nc1nc2ccc(-c3ccc4nccc(-c5ccncc5)c4c3)cc2s1` [compound 3] was tested, and the IC50 [1] was < 1000 nM, the IC50 [2] was < 1000 nM and the IC50 [3] was < 100 nM. The IC50 [4] was < 1 µM.
With `Nc1ccc2cc(-c3ccc4nccc(-c5ccncc5)c4c3)ccc2n1` [compound 5] the IC50 [1] was < 1000 nM, the IC50 [2] was < 10000 nM and the IC50 [3] was < 1000 nM. For the same molecule, the IC50 [4] was < 1 µM.
`Nc1nc2cccc(-c3ccc4nccc(-c5ccncc5)c4c3)c2o1` [compound 15] was tested, and the IC50 [1] was < 1000 nM, the IC50 [2] was < 1000 nM and the IC50 [3] was < 100 nM. For the same molecule, the IC50 [4] was < 0.1 µM and the IC50 [5] was < 100 nM.
With `Cn1cc(-c2ccnc3ccc(-c4ccc5oc(N)nc5c4)cc23)cn1` [compound 26] the IC50 [1] was < 100 nM, the IC50 [2] was < 100 nM and the IC50 [3] was < 100 nM. The IC50 [4] was < 1 µM.
For `CN1CCC(Nc2ncnc3ccc(-c4ccc5oc(N)nc5c4)cc23)CC1` [compound 35], the IC50 [1] was < 100 nM, the IC50 [2] was < 100 nM and the IC50 [6] was < 10 µM. For the same molecule, the IC50 [3] was < 100 nM and the IC50 [4] was < 10 µM.
For `CN1CCC(n2cnc3ccc(-c4ccc5oc(N)nc5c4)cc3c2=O)CC1` [compound 36], the IC50 [2] was < 10000 nM, the IC50 [6] was < 10 µM and the IC50 [3] was < 100 nM. For the same molecule, the IC50 [4] was < 10 µM.
For `Cn1cc(-c2cnc3ccc(-c4ccc5oc(N)nc5c4)cn23)cn1` [compound 41], the IC50 [1] was < 1000 nM, the IC50 [2] was < 1000 nM and the IC50 [6] was < 10 µM. For the same molecule, the IC50 [3] was < 100 nM and the IC50 [4] was < 10 µM.
`CN1CCN(C(=O)c2cnc3ccc(-c4ccc5oc(N)nc5c4)cn23)CC1` [compound 44] was tested, and the IC50 [1] was < 10000 nM, the IC50 [2] was < 10000 nM and the IC50 [3] was < 100 nM. The IC50 [4] was < 10 µM.
`N#Cc1cnc2ccc(-c3ccc4oc(N)nc4c3)cc2c1-c1ccncc1` [compound 46] was tested, and the IC50 [1] was < 100 nM, the IC50 [2] was < 100 nM and the IC50 [3] was < 100 nM. The IC50 [4] was < 0.1 µM.
`Nc1nc2cc(-c3ccc4ncnc(OC5CCOCC5)c4c3)ccc2o1` [compound 47] was tested, and the IC50 [1] was < 1000 nM, the IC50 [2] was < 1000 nM and the IC50 [6] was < 1 µM. For the same molecule, the IC50 [3] was < 100 nM, the IC50 [4] was < 0.1 µM and the IC50 [5] was < 1000 nM.
For `Nc1nc2cc(-c3ccc4ncc(OC5CCOCC5)nc4c3)ccc2o1` [compound 49], the IC50 [1] was < 1000 nM, the IC50 [2] was < 10000 nM and the IC50 [6] was < 10 µM. For the same molecule, the IC50 [3] was < 100 nM and the IC50 [4] was < 10 µM.
With `Nc1nc2cc(-c3ccc4ncc(-c5ccnc(N6CCOCC6)c5)n4c3)ccc2o1` [compound 52] the IC50 [1] was < 100 nM, the IC50 [2] was < 100 nM and the IC50 [3] was < 100 nM. For the same molecule, the IC50 [4] was < 10 µM.
For `Cc1nc2ccc(-c3ccc4oc(N)nc4c3)nn2c1-c1ccncc1` [compound 56], the IC50 [1] was < 100 nM, the IC50 [6] was < 10 µM and the IC50 [3] was < 100 nM. The IC50 [4] was < 1 µM and the IC50 [5] was < 1000 nM.
For `CC(=O)N1CCC(Nc2ncnc3ccc(-c4ccc5oc(N)nc5c4)cc23)CC1` [compound 60], the IC50 [1] was < 100 nM, the IC50 [2] was < 1000 nM and the IC50 [3] was < 100 nM. For the same molecule, the IC50 [4] was < 1 µM and the IC50 [5] was < 10000 nM.
For `Nc1nc2cc(-c3ccn4ncc(-c5ccncc5)c4n3)ccc2o1` [compound 62], the IC50 [1] was < 100 nM, the IC50 [2] was < 100 nM and the IC50 [3] was < 100 nM. For the same molecule, the IC50 [4] was < 0.1 µM and the IC50 [5] was < 100 nM.
With `Nc1nc2cc(-c3ccc4ncc(N5CCOCC5)nc4c3)ccc2o1` [compound 64] the IC50 [1] was < 100 nM, the IC50 [6] was < 10 µM and the IC50 [3] was < 100 nM. For the same molecule, the IC50 [4] was < 10 µM and the IC50 [5] was < 1000 nM.
`Nc1nc2cc(-c3ccc4ncc(=O)[nH]c4c3)ccc2o1` [compound 72] was tested, and the IC50 [1] was < 100 nM, the IC50 [3] was < 100 nM and the IC50 [4] was < 1 µM. The IC50 [5] was < 1000 nM.
For `CC(C)N1CCC(n2cnc3ccc(-c4ccc5oc(N)nc5c4)cc3c2=O)CC1` [compound 74], the IC50 [1] was < 10000 nM, the IC50 [6] was < 10 µM and the IC50 [3] was < 100 nM. For the same molecule, the IC50 [4] was < 10 µM and the IC50 [5] was < 10000 nM.
`Nc1nc2cc(-c3ccc4ncc(-c5cccnc5)nc4c3)ccc2o1` [compound 76] was tested, and the IC50 [1] was < 1000 nM, the IC50 [6] was < 10 µM and the IC50 [3] was < 100 nM. The IC50 [4] was < 10 µM.
`CCOC(=O)N1CCN(c2cnc3ccc(-c4ccc5oc(N)nc5c4)cc3n2)CC1` [compound 119] was tested, and the IC50 [1] was < 10000 nM, the IC50 [2] was < 10000 nM and the IC50 [6] was < 10 µM. The IC50 [3] was < 100 nM, the IC50 [4] was < 10 µM and the IC50 [5] was < 10000 nM.
`Nc1nc2cc(-c3ccc4ncc(N5CC(C(=O)N6CCOCC6)C5)nc4c3)ccc2o1` [compound 169] was tested, and the IC50 [1] was < 1000 nM, the IC50 [2] was < 1000 nM and the IC50 [6] was < 1 µM. For the same molecule, the IC50 [3] was < 100 nM, the IC50 [4] was < 10 µM and the IC50 [5] was < 1000 nM.
With `CN1CCN(C(=O)C2CN(c3cnc4ccc(-c5ccc6oc(N)nc6c5)cc4n3)C2)CC1` [compound 170] the IC50 [1] was < 10000 nM, the IC50 [2] was < 1000 nM and the IC50 [6] was < 1 µM. For the same molecule, the IC50 [3] was < 100 nM, the IC50 [4] was < 10 µM and the IC50 [5] was < 1000 nM.
